Measurements taken from patent US20020013373A1, “Methods and compositions for treatment of asthma” (priority 1997, published 2002).
Where two headings read alike, the source gives them in different places.

What was measured:
allergic sheep [1] = test: Antigen-induced airway hyperresponsiveness (AHR), PD400 of carbachol, acute responder sheep; type: in vivo; conditions: acute responders; for inhibition of AHR (PD400): 2 hours after antigen, FIG. 7
Description: (§1) To assess the normal or baseline airway responsiveness of the sheep, cumulative dose response curves to inhaled carbochol were performed. The SRL of each sheep was measured before and after inhalation of a buffered saline solution and after each administration of 10 breaths of increasing concentrations of carbachol (0.25, 0.5, 1.0, 2.0 and 4.0% wt/vol solution). Airway responsiveness was defined by determination of the cumulative provocation dose (PD400) of carbachol (in breath units) that increased SRL to 400% above baseline. One breath unit was defined as one breath of 1% carbachol solution.
(§2) The following experiments used inhaled D- or L-propranolol. AHR was estimated at 2 hours (acute) or 24 hours (dual) after antigen challenge as the provocating dose of carbachol which increased SRL by 400% (PD400). In acute responders, SRL increased by 219% with antigen challenge and PD400 decreased by 55%. Inhaled D-propranolol had no effect on baseline SRL, but inhibited ABR in a dose dependent manner.

allergic sheep [2] = test: Antigen-induced bronchoconstriction (early and late phase SRL), dual responder sheep; type: in vivo; conditions: dual responders
Source text: Data was expressed as specific resistance, SRL.

allergic sheep [3] = test: Antigen-induced airway hyperresponsiveness (AHR), PD400 of carbachol, dual responder sheep; type: in vivo; conditions: dual responders
Description: as §1, §2

allergic sheep [4] = conditions: for inhibition of ABR: FIG. 6
Description: Five allergic sheep, with previously documented acute bronchoconstrictor response to Ascaris suum antigen, were used for all studies. The sheep were intubated with a cuffed nasotracheal tube and pulmonary airflow resistance (RL) was measured by the esophageal balloon catheter technique, while thoracic gas volume was measured by body plethysmography. Data was expressed as specific resistance, SRL. SRL is defined as RL times thoracic gas volume (Vtg).
The normal reaction of the sheep to the antigen from Ascaris suum is measured. After full recovery and a two week rest period, the sheep again undergo repeat antigen challenge, but this time only after treatment with D-propranolol.
The SRL of the acute responder sheep was measured prior to any treatment (baseline). The normal response of the sheep to antigen challenge by Ascaris suum antigen was measured (Open circles). […] One hour after D-propranolol was administered, the sheep were challenged with Ascaris suum antigen by inhalation. The SRL was measured immediately after antigen challenge (AG0).
Specific lung resistance (SRL) was measured in 11 allergic sheep, of which six sheep were acute responders and five sheep were dual responders, before and serially after challenge with Ascaris suum antigen, without and after pretreatment with D- or L-propranolol. The propranolol was administered either in an inhaled dose or an oral dose.

[5] = inhaled, FIG. 18 (legend: 10 mg/kg)

With `CC(C)NC[C@@H](O)COc1cccc2ccccc12` [D-propranolol] the “airway responsiveness (PD400) after antigen” value (allergic sheep [1]; Example I, inhaled 10 mg in 4 mL PBS, P=NS, FIG. 4) was “maintained the airway responsiveness levels at the baseline”, the “inhibition of AHR (PD400)” value (allergic sheep [1]; inhaled, 5 mg dose) was 30% and the “inhibition of AHR (PD400)” value (allergic sheep [1]; inhaled, 10 mg dose) was 50%. The “inhibition of AHR (PD400)” value (allergic sheep [1]; inhaled, 20 mg dose, P<0.05 vs post-antigen) was 75%, the “effect on AHR (change in PD400)” value (allergic sheep [1]; oral, 5 mg/kg, FIG. 11) was “effects” and the “attenuation of early phase” value (allergic sheep [2]; inhaled, 5 mg dose, FIG. 12) was 35%. For the same compound, the “attenuation of late phase” value (allergic sheep [2]; inhaled, 5 mg dose, FIG. 12) was 21%, the “effect on ABR” value (allergic sheep [2]; inhaled, 10 mg dose, FIG. 14) was “effected ABR” and the “effect on early phase” value (allergic sheep [2]; oral, 5 mg/kg, FIG. 16) was “significantly effected the early phase”. For the same compound, the “effect on late phase response” value (allergic sheep [2]; oral, 5 mg/kg, FIG. 16) was “may even remove the late phase response”, the “inhibition of AHR (PD400)” value (allergic sheep [3]; inhaled, 5 mg dose, 24 hours after antigen, P<0.05, FIG. 13) was 44% and the “effect on AHR” value (allergic sheep [3]; inhaled, 10 mg dose, FIG. 15) was “effected”. The “effect on AHR” value (allergic sheep [3]; oral, 5 mg/kg, FIG. 17) was “effected AHR”, the “allergic bronchoconstriction after antigen challenge” value (allergic sheep [4]; Example I, acute responders (n=5), aerosol 10 mg in 4 mL PBS one hour before antigen, FIG. 1) was “significant inhibition of allergic bronchoconstriction” and the “percentage change in SRL after antigen stimulation vs control” value (allergic sheep [4]; Example I, acute responders (n=5), aerosol 10 mg in 4 mL PBS, P<0.05, FIG. 2) was “significantly less change in SRL”. The “inhibition of ABR” value (allergic sheep [4]; acute responders, inhaled, 5 mg dose) was 37%, the “inhibition of ABR” value (allergic sheep [4]; acute responders, inhaled, 10 mg dose, P<0.05) was 68% and the “inhibition of ABR” value (allergic sheep [4]; acute responders, inhaled, 20 mg dose) was 44%. The “effect on ABR (change in SRL)” value (allergic sheep [4]; acute responders, oral, 5 mg/kg, FIG. 10) was “effects ABR” and the “effect on baseline SRL” value (allergic sheep [4]; in vivo) was “had no effect”.

With `CC(C)NC[C@H](O)COc1cccc2ccccc12` [L-propranolol, reference compound] the “AHR response (PD400)” value (allergic sheep [1]; inhaled, 10 mg dose, FIG. 9) was “no difference between the post antigen and L-propranolol responses”, the “effect on antigen-induced responses” value (allergic sheep [2]; [5]) was “ineffective” and the “peak early change in SRL” value (allergic sheep [2]; [5]) was 351%. The “peak late SRL” value (allergic sheep [2]; [5]) was 175%, the “effect on PD400” value (allergic sheep [3]; inhaled, 24 hours after antigen, FIG. 19 (legend: 10 mg/kg)) was “had no effect” and the “change in SRL after antigen challenge” value (allergic sheep [4]; acute responders, inhaled, 10 mg dose, FIG. 8) was 209%.
